In patent US10104891B2 (priority 2014, dated 2018):

Assays:
Type in all cases: in vivo
[1] = system: Pseudoperonospora cubensis; experiment: Test 2: control effect against cucumber downy mildew; details: control value vs untreated section; for pest or weed control at 4 µg/mL: Pseudoperonospora cubensis, 120 h
How it was run: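 Protective test: zoospores (1.0×10^4 units/ml) misted one day after applying a 4 ppm suspension (wettable powder diluted in 1/5000 Tween20) to 2-leaf cucumber, Sagami hanjiro. After 16 hr at 22° C humid incubation, leaf lesion area read at day 5, expressed as control value versus untreated leaves.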

Plasmopara viticola = experiment: Test 3: control effect against grape downy mildew; details: control value vs untreated section; for pest or weed control at 4 µg/mL: Plasmopara viticola, 120 h
How it was run: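 Leaf lesion area, scored 5 days after inoculation and compared with untreated plants, gives the control value. Inoculation used P. viticola zoospores (1.0×10^4 units/ml) with a 16 hr moist incubation at 22° C. It followed by one day a spray of 4 ppm compound (wettable powder in Tween20) onto Neomuscat seedlings.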

Phytophthora infestans = experiment: whole plant or invertebrate; details: for control value (Test 1): tomato late blight, control value vs untreated section; for pest or weed control at 4 µg/mL: Phytophthora infestans, in Solanum lycopersicum, 96 h, read-out: control value (Test 1)

Structure (SMILES)	control value (Test 2) [1]	control value (Test 3) (Plasmopara viticola)	control value (Test 1) (Phytophthora infestans)	pest or weed control at 4 µg/mL [1]	pest or weed control at 4 µg/mL (Plasmopara viticola)	pest or weed control at 4 µg/mL (Phytophthora infestans)
CS(=O)(=O)Oc1ccc2c(c1)COC(c1csc(C3CCN(C(=O)Cn4nc(C(F)F)cc4C(F)F)CC3)n1)OC2 (stereo not drawn) [Compound 1-138]	100	100	100	–	–	–
CO/C(=N\c1cc(C)ccc1C)N1CCC(c2nc(C3OCc4cccc(OS(C)(=O)=O)c4CO3)cs2)CC1 (stereo not drawn) [Compound 4-1, 4-[4-(6-methylsulfonyloxy-1,5-dihydro-3H-2,4-benzodioxepin-3-yl)-2-thiazolyl]-1-[(Z)-[(2,5-dimethylphenyl)imino](methoxy)methyl]piperidine]	–	–	–	100%	100%	100%
O=C(Cn1nc(C(F)F)cc1C(F)F)N1CCC(c2nc(C3OCc4cc5ccccc5cc4CO3)cs2)CC1 [Compound 1-77]	100	100	100	–	–	–
COc1ccc(Cl)c2c1COC(c1csc(C3CCN(C(=O)Cn4nc(C(F)F)cc4C(F)F)CC3)n1)OC2 (stereo not drawn) [Compound 1-112]	100	100	100	–	–	–
O=C(Cn1nc(C(F)(F)F)cc1C(F)(F)F)N1CCC(c2nc(C3OCc4cc5ccccc5cc4CO3)cs2)CC1 [Compound 1-89]	100	100	80	–	–	–
Cc1cc(C(F)(F)F)nn1C(F)(F)C(=O)N1CCC(c2nc(C3OCc4c(F)ccc(OS(C)(=O)=O)c4CO3)cs2)CC1 (stereo not drawn) [Compound 1-155]	100	100	100	–	–	–
O=C(CON=CC(F)(F)F)N1CCC(c2nc(C3OCc4c(F)ccc(F)c4CO3)cs2)CC1 [Compound 3-4]	100	100	100	–	–	–
CC(C(=O)N1CCC(c2nc(C3OCc4c(F)ccc(OS(C)(=O)=O)c4CO3)cs2)CC1)n1nc(C(F)F)cc1C(F)F (stereo not drawn) [Compound 1-160]	100	100	100	–	–	–
Cc1ccc(C)c(CC(=O)N2CCC(c3nc(C4OCc5c(F)ccc(F)c5CO4)cs3)CC2)c1 [Compound 2-6]	100	100	100	–	–	–
CS(=O)(=O)Oc1cccc2c1COC(c1csc(C3CCN(C(=O)Cn4nc(C(Cl)Cl)cc4C(Cl)Cl)CC3)n1)OC2 (stereo not drawn) [Compound 1-119, 4-[4-(6-methylsulfonyloxy-1,5-dihydro-3H-2,4-benzodioxepin-3-yl)-2-thiazolyl]-1-[2-[3,5-bis(dichloromethyl)-1H-pyrazole-1-yl]acetyl]piperidine]	–	–	–	100%	100%	100%
Cc1cc(C(F)(F)F)nn1CC(=O)N1CCC(c2nc(C3OCc4cccc(C#N)c4CO3)cs2)CC1 (stereo not drawn) [Compound 1-104]	100	100	100	–	–	–
COc1ccc([N+](=O)[O-])c2c1COC(c1csc(C3CCN(C(=O)Cn4nc(C(F)(F)F)cc4C)CC3)n1)OC2 (stereo not drawn) [Compound 1-46]	100	100	100	–	–	–
O=C(Cc1cc(Cl)ccc1Cl)N1CCC(c2nc(C3OCc4cccc([N+](=O)[O-])c4CO3)cs2)CC1 (stereo not drawn) [Compound 2-36]	100	100	100	–	–	–
CS(=O)(=O)Oc1ccc(F)c2c1COC(c1csc(C3CCN(C(=O)Cc4cc(Cl)ccc4Cl)CC3)n1)OC2 (stereo not drawn) [Compound 2-16]	100	100	100	–	–	–
CS(=O)(=O)Oc1c(F)ccc2c1COC(c1csc(C3CCN(C(=O)Cc4cc(Cl)ccc4Cl)CC3)n1)OC2 (stereo not drawn) [Compound 2-43, 4-[4-(7-fluoro-6-methylsulfonyloxy-1,5-dihydro-3H-2,4-benzodioxepin-3-yl)-2-thiazolyl]-1-[2-(2,5-dichlorophenyl)acetyl]piperidine]	–	–	–	100%	100%	100%
Cc1cc(C(F)(F)F)nn1CC(=O)N1CCC(c2nc(C3OCc4ccccc4CO3)cs2)CC1 [Compound 1-1]	100	100	100	–	–	–
O=C(Cn1nc(C(F)F)cc1C(F)F)N1CCC(c2nc(C3OCc4cccc(OC(F)F)c4CO3)cs2)CC1 (stereo not drawn) [Compound 1-136]	100	100	100	–	–	–
Cc1cc(C(F)(F)F)nn1CC(=O)N1CCN(c2nc(C3OCc4cccc(OS(C)(=O)=O)c4CO3)cs2)CC1 (stereo not drawn) [Compound 1-127]	100	100	100	–	–	–

Structure (SMILES)	control value (Test 2) [1]	control value (Test 3) (Plasmopara viticola)	control value (Test 1) (Phytophthora infestans)	pest or weed control at 4 µg/mL [1]	pest or weed control at 4 µg/mL (Plasmopara viticola)	pest or weed control at 4 µg/mL (Phytophthora infestans)
CCCCCCCCS(=O)(=O)Oc1cccc2c1COC(c1csc(C3CCN(C(=O)Cn4nc(C(F)F)cc4C(F)F)CC3)n1)OC2 (stereo not drawn) [Compound 1-59]	100	100	100	–	–	–
Cc1cc(C(F)(F)F)nn1CC(=O)N1CCC(c2nc(C3OCc4c(F)c(F)c(F)c(F)c4CO3)cs2)CC1 [Compound 1-17]	100	100	100	–	–	–
Cc1cc(C(F)(F)F)nn1CC(=O)N1CCC(c2nc(C3OCc4c(OS(C)(=O)=O)ccc(OS(C)(=O)=O)c4CO3)cs2)CC1 [Compound 1-103]	100	100	100	–	–	–
CC1OC(c2csc(C3CCN(C(=O)Cn4nc(C(F)F)cc4C(F)F)CC3)n2)OCc2ccccc21 (mixture of isomers) [Compound 1-75]	100	100	100	–	–	–
CS(=O)(=O)Oc1cccc2c1COC(c1csc(C3CCN(C(=O)Cc4cc(C(F)(F)F)ccc4C(F)(F)F)CC3)n1)OC2 (stereo not drawn) [Compound 2-30, 4-[4-(6-methylsulfonyloxy-1,5-dihydro-3H-2,4-benzodioxepin-3-yl)-2-thiazolyl]-1-[2-[2,5-bis(trifluoromethyl)phenyl]acetyl]piperidine]	–	–	–	100%	100%	30%
Cc1cc(C)n(CC(=O)N2CCC(c3nc(C4OCc5c(F)ccc(OS(C)(=O)=O)c5CO4)cs3)CC2)n1 (stereo not drawn) [Compound 1-120]	100	100	100	–	–	–
Cc1cc(C(F)(F)F)nn1CC(=O)N1CCC(c2nc(C3OCc4cccc(OS(=O)(=O)CCC(F)(F)F)c4CO3)cs2)CC1 (stereo not drawn) [Compound 1-30]	100	100	100	–	–	–
Cc1cc(C(F)(F)F)nn1CC(=O)N1CCC(c2nc(C3OCc4cccc(F)c4CO3)cs2)CC1 (stereo not drawn) [Compound 1-2]	100	100	100	–	–	–
O=C(Cn1nc(C(F)F)cc1C(F)F)N1CCC(c2nc(C3OCc4cccc(F)c4CO3)cs2)CC1 (stereo not drawn) [Compound 1-35]	100	100	100	–	–	–
Cc1ccc(C)c(CC(=O)N2CCC(c3nc(C4OCc5c(OS(C)(=O)=O)cc(C)c(C)c5CO4)cs3)CC2)c1 (stereo not drawn) [Compound 2-31, 4-[4-(6,7-dimethyl-9-methylsulfonyloxy-1,5-dihydro-3H-2,4-benzodioxepin-3-yl)-2-thiazolyl]-1-[2-(2,5-dimethylphenyl)acetyl]piperidine]	–	–	–	100%	100%	0%
Cc1ccc(C)c(CC(=O)N2CCC(c3nc(C4OCc5cccc(Br)c5CO4)cs3)CC2)c1 (stereo not drawn) [Compound 2-17]	100	100	90	–	–	–
Cc1cc(C(F)(F)F)nn1CC(=O)N1CCC(c2nc(C3OCc4c(F)ccc(OS(C)(=O)=O)c4CO3)cs2)CC1C (stereo not drawn) [Compound 1-159]	100	100	100	–	–	–
CC1OC(c2csc(C3CCN(C(=O)Cn4nc(C(F)(F)F)cc4C(F)(F)F)CC3)n2)OCc2ccccc21 (stereo not drawn) [Compound 1-88]	100	100	100	–	–	–
COc1ccc(OS(C)(=O)=O)c2c1COC(c1csc(C3CCN(C(=O)Cn4nc(C(F)F)cc4C(F)F)CC3)n1)OC2 (stereo not drawn) [Compound 1-39, 4-[4-(6-methoxy-9-methylsulfonyloxy-1,5-dihydro-3H-2,4-benzodioxepin-3-yl)-2-thiazolyl]-1-[2-[3,5-bis(difluoromethyl)-1H-pyrazole-1-yl]acetyl]piperidine]	–	–	–	100%	100%	100%
CC(C)S(=O)(=O)Oc1cccc2c1COC(c1csc(C3CCN(C(=O)Cn4nc(C(F)F)cc4C(F)F)CC3)n1)OC2 (stereo not drawn) [Compound 1-53]	100	100	100	–	–	–
Cc1cc(C(F)(F)F)nn1CC(=O)N1CCC(c2nc(C3OCc4ccc(C(F)(F)F)cc4CO3)cs2)CC1 (stereo not drawn) [Compound 1-16]	100	100	100	–	–	–
CS(=O)(=O)Oc1ccc(Cl)c2c1COC(c1csc(C3CCN(C(=O)Cn4nc(C(F)(F)F)cc4C(F)(F)F)CC3)n1)OC2 (stereo not drawn) [Compound 1-118]	100	100	100	–	–	–
